The test has as its system Thrombin. Description: Thrombin time measurement (antithrombotic activity) with Thrombitimer2. The test is classed as biochemical. The note with it: per 0.1 mg of asprin; time until fibrinogen clots are formed; FIG. 8. The protocol:
As for the 4th step, a thrombin time of the divided groups in the 3rd step are measured and the group showing the highest antithrombotic activity is selected. The thrombin time is, but not limited to, a time until fibrinogen clots are formed. For example, with Thrombitimer2 (Behnk Elektronik, Germany), after adding Thrombin (T46481KU-59NIH unit/mg) and fibrinogen, the time until fibrinogen clots are formed is counted.
The activity was measured by counting a thrombin time according to the method described in Choi et al., Kor. J. Pharmacogn. 26, 154-158, 1995 and Son et al., Kor. J. Pharmacogn. 34 (1):52-61, 2004.
Specifically, the thrombin time was measured with Thrombitimer2 (Behnk Elektronik, Germany) wherein a fixed concentration of specimen was dissolved in 10 ? of dimethylsulfoxide (DMSO), the solution was added to a tube with 50 ? of borate buffer (pH7.8), Thrombin 1 unit/50 ? (T46481KU-59NIH unit/mg solid, Sigma Co., USA) was mixed with the solution, the mixture was warmed at 37° C. for 5 minutes, 200 ? of fibrinogen (0.33%, Sigma Co., USA) was added to it, and the time until coaggulation occurs was counted. […]
Antithrombotic activity was measured by counting a thrombin time and the result is an average of at least 3 experiments.

Take `CC(=O)Oc1ccccc1C(=O)O` [asprin]: the thrombin time turned out to be 15 s.

The record behind these values is patent publication US20100015243A1, “METHOD FOR PREPARING MATERIALS HAVING ANTITHROMBOTIC ACTIVITY FROM MUSKRAT MUSK AND MATERIALS OBTAINED FROM THE METHOD” (priority 2006, published 2010).
